Key:
[1] = molecular target: T1, human recombinant kinase full-length AKT1 E17K (Homo sapiens, UniProt P31749, E17K); test: AKT1 E17K kinase assay (TR-FRET, Lance); format: biochemical; details: 0.6 nM AKT1 E17K, 50 nM Ulight-CREBtide, either 50 μM ATP or 2 mM ATP (not specified which), 60 min at RT
T1 construct: Purified human recombinant kinase full-length AKT1 E17K was expressed in insect cells; made in house; host or cells: insect cells
Protocol: AKT1 E17K kinase assay: Inhibitory effects of compounds on AKT1 E17K were undertaken in a 10-pt dose response kinase activity assay measuring phospho-peptide product formation based on TR-FRET signal as described in the following paragraph.
(§1) Purified human recombinant kinase full-length AKT1 E17K was expressed in insect cells and activated in vitro by PDPK1. Ulight™-CREBtide (PerkinElmer, catalog number TRF0107) was used as the peptide substrate. The reaction buffer consisted of 50 mM HEPES pH 7.5, 10 mM MgCl2, 0.01% Triton X-100, 0.01% BSA, 2 mM DTT, 0.6 nM AKT1 E17K, 50 nM. Ulight™ CREBtide and either 50 μM ATP or 2 mM ATP. The compound solution was prepared as 10 mM DMSO stock. […] Final DMSO concentration in the assay was 1%. […] The reaction was stopped after 60 min of incubation at RT by the addition of 10 μL of Detection Mix (PerkinElmer, #CR97-100) consisting of Europium-anti-phospho-CREB (Ser133) (Perkin Elmer, catalog numberTRF0200). Incubation with the detection mix for a further 60 min allowed binding of antibody to the phospho-Ulight™ CREBtide. The fluorescence emissions at 620 nm and 665 nm after excitation at […] was measured using Envision reader. The ratio of the emissions at 665 nm and at 620 nm provided the measure for the amount of phosphorylated CREBtide product of AKT1 E17K kinase activity.

[2] = molecular target: T2, human recombinant kinase full-length wildtype AKT1 (Homo sapiens, UniProt P31749); test: AKT1 kinase assay (wildtype, TR-FRET, Lance); format: biochemical; details: 0.6 nM wildtype AKT1, 50 nM Ulight-CREBtide, either 50 μM ATP or 2 mM ATP (not specified which), 60 min at RT
T2 construct: Purified human recombinant kinase full-length wildtype AKT1 was expressed in insect cells; made in house; host or cells: insect cells
Protocol: AKT1 kinase assay: Inhibitory effects of compounds on wildtype AKT1 were undertaken in a 10-pt dose response kinase activity assay measuring phospho-peptide product formation based on TR-FRET signal as described in the following paragraph.
as §1, with “full-length wildtype” for “full-length”, “AKT1” for “AKT1 E17K”, “Ulight™—CREBtide” for “Ulight™-CREBtide”, “AKT1,” for “AKT1 E17K,”, “nM Ulight™-CREBtide” for “nM. Ulight™ CREBtide”

T2 sequence (P31749 whole entry): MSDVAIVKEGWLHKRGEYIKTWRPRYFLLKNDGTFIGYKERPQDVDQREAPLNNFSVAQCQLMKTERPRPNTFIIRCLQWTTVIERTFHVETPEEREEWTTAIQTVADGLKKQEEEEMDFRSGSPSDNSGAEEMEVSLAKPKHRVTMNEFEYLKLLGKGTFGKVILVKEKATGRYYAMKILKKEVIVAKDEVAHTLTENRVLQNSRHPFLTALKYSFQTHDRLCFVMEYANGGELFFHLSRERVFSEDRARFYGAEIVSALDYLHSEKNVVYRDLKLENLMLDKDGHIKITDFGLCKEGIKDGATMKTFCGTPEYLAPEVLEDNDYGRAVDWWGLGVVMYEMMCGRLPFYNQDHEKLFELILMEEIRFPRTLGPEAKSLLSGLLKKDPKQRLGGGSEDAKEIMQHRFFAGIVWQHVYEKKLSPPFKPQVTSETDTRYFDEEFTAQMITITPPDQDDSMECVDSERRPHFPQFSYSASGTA
T1 sequence (P31749 whole entry E17K): as the sequence (P31749 whole entry) above, with E17K counted along it

| Compound | IC50 [1] [nM] | IC50 [2] [nM] |
| --- | --- | --- |
| CC(C)c1ccc2nc(-c3cccnc3N)n(-c3ccc(NC(=O)c4ccc(C(=O)O)cc4)nc3)c2c1 [Compound 172, 4-((5-(2-(2-aminopyridin-3-yl)-6-isopropyl-1H-benzo[d]imidazol-1-yl)pyridin-2-yl)carbamoyl)benzoic acid] | > 500 | < 500 |
| Nc1ncccc1-c1nc2ccccc2n1-c1ccc(CNC(=O)c2cccc(CC(=O)O)c2)cc1 [Compound 108, 2-(3-((4-(2-(2-aminopyridin-3-yl)-1H-benzo[d]imidazol-1-yl)benzyl)carbamoyl)phenyl) acetic acid] | > 500 | > 500 |
| Nc1ncccc1-c1nc2cc(-c3cccnc3)cnc2n1-c1ccc(CNC(=O)c2cccc(CC(=O)O)c2)cc1 [Compound 90, 2-(3-((4-(2-(2-aminopyridin-3-yl)-6-(pyridin-3-yl)-3H-imidazo[4,5-b]pyridin-3-yl)benzyl)carbamoyl)phenyl) acetic acid] | > 500 | < 500 |
| NC(=O)c1cnc2c(c1)nc(-c1cccnc1N)n2-c1ccc(CNC(=O)c2cccc(CC(=O)O)c2)cc1 [Compound 97, 2-[3-[[4-[2-(2-amino-3-pyridyl)-6-carbamoyl-imidazo[4,5-b]pyridin-3-yl]phenyl]methylcarbamoyl]phenyl]acetic acid] | > 500 | > 500 |
| COC(=O)Cc1ccc(C(=O)NCc2ccc(-n3c(-c4cccnc4N)nc4cc(-c5cccnc5)cnc43)cc2)cc1 [Compound 87, methyl 2-(4-((4-(2-(2-aminopyridin-3-yl)-6-(pyridin-3-yl)-3H-imidazo[4,5-b]pyridin-3-yl)benzyl)carbamoyl)phenyl)acetate] | > 500 | < 500 |
| Nc1ncccc1-c1nc2cc(-c3cccnc3)cnc2n1-c1ccc(CNC(=O)c2ccc(CCC(=O)O)cc2)cc1 [Compound 92, 3-(4-((4-(2-(2-aminopyridin-3-yl)-6-(pyridin-3-yl)-3H-imidazo[4,5-b]pyridin-3-yl)benzyl)carbamoyl)phenyl) propanoic acid] | 200 to 500 | < 500 |
| Nc1ncccc1-c1nc2cc(-c3cccnc3)cnc2n1-c1ccc(CNC(=O)c2cccc(CCC(=O)O)c2)cc1 [Compound 94, 3-(3-((4-(2-(2-aminopyridin-3-yl)-6-(pyridin-3-yl)-3H-imidazo[4,5-b]pyridin-3-yl)benzyl)carbamoyl)phenyl) propanoic acid] | > 500 | < 500 |
| CC(=O)Nc1ccc(-c2ccc3nc(-c4cccnc4N)n(-c4ccc(CNC(=O)c5cccc(CC(=O)O)c5)cc4)c3n2)cc1 [Compound 80, 2-(3-((4-(5-(4-acetamidophenyl)-2-(2-aminopyridin-3-yl)-3H-imidazo[4,5-b]pyridin-3-yl)benzyl)carbamoyl)phenyl) acetic acid] | 200 to 500 | < 500 |
| CC(C)Oc1ccc2nc(-c3cccnc3N)n(-c3ccc(NC(=O)c4ccc(C(=O)O)cc4)nc3)c2c1 [Compound 176, 4-[[5-[2-(2-amino-3-pyridyl)-6-isopropoxy-benzimidazol-1-yl]-2-pyridyl]carbamoyl]benzoic acid] | > 500 | > 500 |
| Cc1cc(C(=O)O)ccc1C(=O)NCc1ccc(-n2c(-c3cccnc3N)nc3ccc(C(F)(F)F)cc32)cc1 [Compound 105, 4-((4-(2-(2-aminopyridin-3-yl)-6-(trifluoromethyl)-1H-benzo[d]imidazol-1-yl)benzyl)carbamoyl)-3-methylbenzoic acid] | > 500 | < 500 |
| Nc1ncccc1-c1nc2ccc(-c3ccccc3)cc2n1-c1ccc(CNC(=O)c2cccc(CC(=O)O)c2)cc1 [Compound 51, 2-(3-((4-(2-(2-aminopyridin-3-yl)-6-phenyl-1H-benzo[d]imidazol-1-yl)benzyl)carbamoyl)phenyl)acetic acid] | 50 to 200 | < 500 |
| Nc1ncccc1-c1nc2cc(-c3cccc(NC(=O)c4ccccc4)c3)cnc2n1-c1ccc(CNC(=O)c2cccc(CC(=O)O)c2)cc1 [Compound 85, 2-(3-((4-(2-(2-aminopyridin-3-yl)-6-(3-benzamidophenyl)-3H-imidazo[4,5-b]pyridin-3-yl)benzyl)carbamoyl)phenyl) acetic acid] | 50 to 200 | < 500 |

The remaining lines, values ahead:

| IC50 [1] [nM] | IC50 [2] [nM] | Compound |
| --- | --- | --- |
| 200 to 500 | < 500 | CC(C)[C@@H](c1ccc(C(=O)O)cc1)N1CC(c2ccc(-n3c(-c4cccnc4N)nc4ccc(-c5ccccc5)nc43)cc2)C1 [Compound 162] |
| > 500 | < 500 | COC(=O)c1ccc(C(=O)N2CC(c3ccc(-n4c(-c5cccnc5N)nc5ccc(-c6ccccc6)nc54)cc3)C2)cc1 [Compound 69, methyl 4-(3-(4-(2-(2-aminopyridin-3-yl)-5-phenyl-3H-imidazo[4,5-b]pyridin-3-yl)phenyl)azetidine-1-carbonyl)benzoate] |
| > 500 | < 500 | CC(c1ccc(C(=O)O)cc1)N1CC(c2ccc(-n3c(-c4cccnc4N)nc4ccc(-c5ccccc5)nc43)cn2)C1 (stereo not drawn) [Compound 167, 4-(1-(3-(5-(2-(2-aminopyridin-3-yl)-5-phenyl-3H-imidazo[4,5-b]pyridin-3-yl)pyridin-2-yl)azetidin-1-yl)ethyl)benzoic acid] |
| 50 to 200 | < 500 | Cc1nc(NC(=O)c2cc(F)c(C(=O)O)cc2F)ccc1-n1c(-c2cccnc2N)nc2ccc(-c3ccccc3)nc21 [Compound 147] |
| 200 to 500 | < 500 | Nc1ncccc1-c1nc2ccc(-c3ccccc3)nc2n1-c1ccc(CNC(=O)c2cccc(S(=O)(=O)O)c2F)cc1 [Compound 9, 3-((4-(2-(2-aminopyridin-3-yl)-5-phenyl-3H-imidazo[4,5-b]pyridin-3-yl)benzyl)carbamoyl)-2-fluorobenzenesulfonic acid] |
| 50 to 200 | < 500 | Cc1cc(C(=O)O)c(F)cc1C(=O)Nc1ccc(-n2c(-c3cccnc3N)nc3ccc(-c4ccccc4)nc32)c(C)n1 [Compound 149] |
| 50 to 200 | < 500 | Nc1ncccc1-c1nc2ccc(-c3ccccc3)nc2n1-c1ccc(CNC(=O)c2cccc(CC(=O)O)c2)cc1 [Compound 32, 2-(3-((4-(2-(2-aminopyridin-3-yl)-5-phenyl-3H-imidazo[4,5-b]pyridin-3-yl)benzyl)carbamoyl)phenyl)acetic acid] |
| 50 to 200 | < 500 | Nc1ncccc1-c1nc2ccc(-c3ccccc3)nc2n1-c1ccc(C2CN(Cc3ccc(C(=O)O)cc3)C2)cc1 [Compound 183, 4-((3-(4-(2-(2-aminopyridin-3-yl)-5-phenyl-3H-imidazo[4,5-b]pyridin-3-yl)phenyl)azetidin-1-yl)methyl)benzoic acid] |
| 50 to 200 | < 500 | Nc1ncccc1-c1nc2ccc(-c3ccccc3)nc2n1-c1ccc(CNC(=O)c2cccc(CCC(=O)O)c2)cc1 [Compound 42, 3-(3-((4-(2-(2-aminopyridin-3-yl)-5-phenyl-3H-imidazo[4,5-b]pyridin-3-yl)benzyl)carbamoyl)phenyl) propanoic acid] |
| 200 to 500 | < 500 | Nc1ncccc1-c1nc2ccc(-c3ccccc3)nc2n1-c1ccc(C(=O)Nc2ccc(C(=O)O)cc2F)nc1 [Compound 179, 4-(5-(2-(2-aminopyridin-3-yl)-5-phenyl-3H-imidazo[4,5-b]pyridin-3-yl)picolinamido)-3-fluorobenzoic acid] |
| > 500 | < 500 | COC(=O)c1ccccc1C(=O)N1CC(c2ccc(-n3c(-c4cccnc4N)nc4ccc(-c5ccccc5)nc43)cc2)C1 [Compound 73, methyl 2-(3-(4-(2-(2-aminopyridin-3-yl)-5-phenyl-3H-imidazo[4,5-b]pyridin-3-yl)phenyl)azetidine-1-carbonyl)benzoate] |
| 50 to 200 | < 500 | C[C@H](c1ccc(C(=O)O)cc1C(F)(F)F)N1CC(c2ccc(-n3c(-c4cccnc4N)nc4ccc(-c5ccccc5)nc43)cc2)C1 [Compound 165] |

From US20260200919A1, “SUBSTITUTED AMINOPYRIDINE COMPOUNDS AND METHODS OF TREATING DISEASE USING SAME” (Atavistik Bio, Inc., priority 2023, published 2026)
